# Reference: patent US20250275953A1, “VODOBATINIB FOR REDUCING PROGRESSION OF PARKINSON'S DISEASE” (Sun Pharma Advanced Research Company Ltd., priority 2022, published 2025)
# Entries after “also recorded” stand apart in the source; their conditions may differ.
# Experiments:
# [1] = Exposure on transition from capsule to powder, phase 2 study in early PD; assay type: in vivo, human; conditions: on average
# Experimental: A phase 2, randomized, double-blind, placebo-controlled study of vodobatinib in approximately 504 subjects with early Parkinson's disease is ongoing. The subjects are being administered a low dose (96 mg capsule or 192 mg powder of vodobatinib) or high dose (192 mg capsule or 384 mg powder of vodobatinib). The subjects are initially administered the capsule and then transitioned to the powder. […] The objective of the study is to determine if vodobatinib reduces the rate of progression of early-stage Parkinson's disease over 40 weeks, as defined by the sum of the MDS-UPDRS (Movement Disorder Society-Unified Parkinson's Disease Rating Scale) Parts 2 and 3 scores.
# [2] = Safety and tolerability, Parkinson's disease patients (NCT02970019); assay type: in vivo, human; conditions: for Possibly related AEs by subject: daily for 14 days
# Excerpt: Of these, 44 subjects completed the study. An additional 10 subjects were enrolled in the open label part of the study, of these, one subject was discontinued due to an AE of vomiting.
# Safety population was comprised of 48 subjects (not including those in the open label cohorts) and PK population was comprised of 36 subjects from double blind part and 10 subjects from open label part of the study. No subjects were discontinued from the study due to protocol deviation.
# (§1) Study NCT02970019 was a multi-center safety and tolerability study of vodobatinib in 60 subjects with Parkinson's Disease (diagnosed with PD according to the Brain Bank criteria of the United Kingdom Parkinson's Disease Society) who were randomized to receive placebo or various daily doses of vodobatinib for 14 days in a parallel assignment design with quadruple masking (participant, care provider, investigator, and outcomes assessor.) In study NCT02970019, consecutive cohorts of up to eight subjects received once-daily doses of 6, 12, 18, 24, 48, 96, 192, or 384 mg of study drug for 14 days, with six subjects in each cohort on vodobatinib and two subjects in each cohort on placebo. An alternating panel design was used such that subjects in the 6 and 18 mg cohorts were the same, and subjects in the 12 and 24 mg cohorts were the same, thus yielding 48 total individuals enrolled in the eight cohorts. There was a wash-out period of 14 days between each were studied in sequential ascending dose cohorts. In parallel to the double-blind cohorts, up to four subjects per dose cohort were enrolled in an open-label study of vodobatinib to receive 24, 48 or 96 mg once-daily doses of for 14 days. These subjects underwent lumbar puncture to collect CSF on Day 1, and 2-3 h after the last morning dose on Day 14. PK blood draws (for both double-blind and open label) were collected at pre-dose (˜30 min) and at 0.5, 1, 2, 4, 8, 12 and 24 h post-dose on Days 1 and 14.
# Abl (T315I) = Abl (T315I) (Homo sapiens, UniProt P00519, T315I); assay: Biochemical kinase assay, gatekeeper mutant Abl
# Excerpt: (§2) Conventional biochemical kinase assays, using radioactivity and fluorescence as readouts, were used to derive half maximal-inhibitory concentrations (IC50) values.
# Abl (Y253F) = Abl (Y253F) (Homo sapiens, UniProt P00519, Y253F); assay: Biochemical kinase assay, mutant Abl
# Excerpt: as §2
# Abl (Q252H) = Abl (Q252H) (Homo sapiens, UniProt P00519, Q252H); assay: Biochemical kinase assay, mutant Abl
# Excerpt: as §2
# Abl (E255K) = Abl (E255K) (Homo sapiens, UniProt P00519, E255K); assay: Biochemical kinase assay, mutant Abl
# Excerpt: as §2
# Abl (F317I) = Abl (F317I) (Homo sapiens, UniProt P00519, F317I); assay: Biochemical kinase assay, mutant Abl
# Excerpt: as §2
# Abl (F317L) = Abl (F317L) (Homo sapiens, UniProt P00519, F317L); assay: Biochemical kinase assay, mutant Abl
# Excerpt: as §2
# Abl (H396P) = Abl (H396P) (Homo sapiens, UniProt P00519, H396P); assay: Biochemical kinase assay, mutant Abl
# Excerpt: as §2
# Abl (M351T) = Abl (M351T) (Homo sapiens, UniProt P00519, M351T); assay: Biochemical kinase assay, mutant Abl
# Excerpt: as §2
# [3] = CSF concentration, Parkinson's disease patients, open label part, Day 14; assay type: in vivo, human; conditions: for mean CSF level: 2-3 h post dose, Day 14, PD patients; for Concentration in CSF Mean (SD): Day 14, 2-3 h post dose, PD patients open label; for Concentration in CSF Geo. Mean / Concentration in CSF Median: Day 14, PD patients open label
# Experimental: A single CSF sample was collected at either 2 h or 3 h following the dose on Day 14.
# as §1
# Vodobatinib levels in plasma and CSF were determined using a fully validated LC-MS/MS assay with lower limits of quantitation (LLOQ) of 2.5 ng/mL and 0.05 ng/mL, respectively. PK analyses were performed using standard non-compartmental analysis with Phoenix® WinNonlin® software Version 6.4 to estimate the PK parameters Cmax, Tmax, AUCtau and Css. Descriptive statistics were used to characterize vodobatinib concentrations and PK parameters in plasma and CSF. Statistical calculations were performed with SAS software (Version 9.4, SAS Institute, Cary, North Carolina, USA).
smiles,measurement,setting,value
Cc1ccc(C(=O)NNC(=O)c2c(C)cccc2Cl)cc1C#Cc1cnc2ccccc2c1 [N′-(2-chloro-6-methylbenzoyl)-4-methyl-3-[2-(3-quinolyl)ethynyl]-benzohydrazide],"increase in exposure, capsule to powder (96 to 192 mg or 192 to 384 mg)",[1],approximately 1.4 fold
same,n/N (number of AEs per number of subjects in dose group),[2]; 6 mg DB,6 mg DB (5/8)
same,Possibly related AEs by subject,"[2]; 6 mg DB, listed as Vodobatinib","Increased appetite, feet & ankle weakness, infraorbital puffiness,; also recorded: increased tremor and dry eyes"
same,n/N (number of AEs per number of subjects in dose group),[2]; 12 mg DB,12 mg DB (3/8)
same,Possibly related AEs by subject,"[2]; 12 mg DB, listed as Vodobatinib",Light-headedness; also recorded: Decreased balance & decreased gait
same,n/N (number of AEs per number of subjects in dose group),[2]; 18 mg DB,18 mg DB (3/6)
same,Possibly related AEs by subject,[2]; 18 mg DB,New onset atrial fibrillation and orthostasis (moderate severity)
same,n/N (number of AEs per number of subjects in dose group),[2]; 24 mg DB,24 mg DB (1/8)
same,Possibly related AEs by subject,[2]; 24 mg DB,None
same,n/N (number of AEs per number of subjects in dose group),[2]; 24 mg OL,24 mg OL (3/3)
same,Possibly related AEs by subject,"[2]; 24 mg OL, listed as Vodobatinib","Vertigo, headache, nausea, weakness, vomiting (all moderate"
same,n/N (number of AEs per number of subjects in dose group),[2]; 48 mg DB,48 mg DB (2/8)
same,Possibly related AEs by subject,[2]; 48 mg DB,None
same,n/N (number of AEs per number of subjects in dose group),[2]; 96 mg DB,96 mg DB (2/8)
same,Possibly related AEs by subject,"[2]; 96 mg DB, listed as Vodobatinib","Abdominal pain and soft stool; also recorded: Brain fog, worsening of right lower leg cramps"
same,n/N (number of AEs per number of subjects in dose group),[2]; 96 mg OL,96 mg OL (2/4)
same,Possibly related AEs by subject,"[2]; 96 mg OL, listed as Vodobatinib",Dry eyes; also recorded: Worsening of muscle cramps (“probably related”)
same,n/N (number of AEs per number of subjects in dose group),[2]; 192 mg DB,192 mg DB (3/8)
same,Possibly related AEs by subject,"[2]; 192 mg DB, listed as Vodobatinib","Mild rash, epigastric pain; also recorded: Somnolence, worsening of left upper extremities resting tremor; also recorded: Erythematous, pruritic rash on torso and head"
same,subjects discontinued due to AEs,"[2]; 192 mg, 384 mg (double-blind), 24 mg (open-label)",Three
same,changes in laboratory values,[2]; PD patients,no clinically significant drug related changes
same,changes in the QT interval,[2]; PD patients,no drug-related changes
same,overall safety and tolerability,[2]; PD patients,acceptable safety and tolerability
same,changes in laboratory values,"[2]; PD patients, listed as vodobatinib",no clinically significant drug-related changes
same,"number of TEAEs, overall","[2]; PD subjects, 14 days",63
same,"subjects reporting TEAEs, overall","[2]; PD subjects, 14 days",32
same,Most common treatment related TEAEs (>1 subject),[2]; double-blind part,"rash, abdominal pain and tremor"
same,number of TEAEs,[2]; double-blind part,42
same,subjects reporting TEAEs,[2]; double-blind part,Twenty-three
same,subjects reporting TEAEs,"[2]; double-blind, 6 mg cohort",3
same,subjects reporting TEAEs,"[2]; double-blind, 12 mg cohort",3
same,subjects reporting TEAEs,"[2]; double-blind, 18 mg cohort",2
same,subjects reporting TEAEs,"[2]; double-blind, 24 mg cohort",one
same,subjects reporting TEAEs,"[2]; double-blind, 48 mg cohort",one
same,subjects reporting TEAEs,"[2]; double-blind, 96 mg cohort",2
same,subjects reporting TEAEs,"[2]; double-blind, 192 mg cohort",3
same,subjects reporting TEAEs,"[2]; double-blind, 384 mg cohort",5
same,most severe TEAE,"[2]; one subject, 48 mg group, treatment unrelated, resolved",asthenia of grade 3 severity
same,number of TEAEs,[2]; open-label part,21
same,subjects reporting TEAEs,[2]; open-label part,Nine
same,number of TEAEs,"[2]; open-label, 24 mg cohort (3 subjects)",10
same,number of TEAEs,"[2]; open-label, 48 mg cohort (3 subjects)",6
same,number of TEAEs,"[2]; open-label, 96 mg cohort (3 subjects)",5
same,number of treatment related TEAEs,[2]; overall,35
same,subjects reporting treatment related TEAEs,[2]; overall,Twenty-one
same,IC50,Abl (T315I),8 nM
same,IC50,Abl (Y253F),1 nM
same,IC50,Abl (Q252H),0.8 nM
same,inhibition,Abl (E255K),potently inhibit
same,inhibition,Abl (F317I),potently inhibit
same,inhibition,Abl (F317L),potently inhibit
same,IC50,Abl (H396P),0.5 nM
same,IC50,Abl (M351T),0.8 nM
same,mean CSF level,[3]; 24 mg,1.5 nM
same,Concentration in CSF Mean (SD),[3]; 24 mg,0.6550 (0.2447) ng/mL
same,Concentration in CSF Mean (SD),"[3]; 24 mg, listed as vodobatinib",0.66 ng/mL
same,Concentration in CSF Geo. Mean,[3]; 24 mg,0.6317 ng/mL
same,Concentration in CSF Median,[3]; 24 mg,0.6550 ng/mL
same,mean CSF level,[3]; 48 mg,1.5 nM
same,Concentration in CSF Mean (SD),[3]; 48 mg,0.6683 (0.744) ng/mL
same,Concentration in CSF Mean (SD),"[3]; 48 mg, listed as vodobatinib",0.67 ng/mL
same,Concentration in CSF Geo. Mean,[3]; 48 mg,0.8868 ng/mL
same,Concentration in CSF Median,[3]; 48 mg,0.5350 ng/mL
same,mean CSF level,[3]; 96 mg,2.4 nM
same,Concentration in CSF Mean (SD),[3]; 96 mg,1.1193 (0.4533) ng/mL
same,Concentration in CSF Mean (SD),"[3]; 96 mg, listed as vodobatinib",1.1 ng/mL
same,Concentration in CSF Geo. Mean,[3]; 96 mg,1.0482 ng/mL
same,Concentration in CSF Median,[3]; 96 mg,1.0850 ng/mL
